Measurements from patent US20070043110A1, “Nontoxic potentiation sensitization of ovarian cancer therapy by supplementary treatment with vitamins” (Summa Health System, priority 2001, published 2007).
Structures can show the parent of a compound that is named as a salt. Where two headings read alike, the source gives them in different places.

How the values were obtained:
[1] = test system: murine transplantable liver tumor (TLT); conditions: cited from earlier work
[2] = test system: J82; test: Antitumor activity by MTT assay, J82; conditions: Homo sapiens
Text: (§1) The FIC index was used to evaluate the synergism of the vitamins. A FIC<1.0 indicates the combination is synergistic, while a FIC>1.0 indicates the combination is antagonistic. A FIC=1.0 indicates the combination is indifferent. […] During this time, two requests for humanitarian intervention were made.

[3] = test system: RT4; test: Antitumor activity by MTT assay, RT4; conditions: Homo sapiens
Text: as §1

[4] = test system: SCaBER; test: Antitumor activity by MTT assay, SCaBER; conditions: Homo sapiens
Text: as §1

[5] = test system: T24; test: Antitumor activity by MTT assay, T24; conditions: Homo sapiens
Text: as §1

[6] = test system: TCCSUP; test: Antitumor activity by MTT assay, TCCSUP; conditions: Homo sapiens, TCC-SUP
Text: as §1

[7] = test system: MDA-MB-231; test: Antitumor activity by MTT assay, MDA-MB-231; conditions: Homo sapiens
Text: as §1

[8] = test system: Caki-1; test: Antitumor activity by MTT assay, Caki-1; conditions: Homo sapiens
Text: as §1

[9] = test system: MDAH 2774 cells; test: Antitumor activity by MTT assay, MDAH 2774
Text: as §1

[10] = test system: SKOV3; test: Antitumor activity by MTT assay, SKOV3; conditions: Homo sapiens
Text: as §1

[11] = test system: CWR22; test: Antitumor activity by MTT assay, CWR22; conditions: Homo sapiens
Text: as §1

[12] = test system: DU145; test: Antitumor activity by MTT assay, DU145; conditions: Homo sapiens
Text: as §1

[13] = test system: PC3; test: Antitumor activity by MTT assay, PC3; conditions: Homo sapiens
Text: as §1

[14] = test system: Tera-2; test: Antitumor activity by MTT assay, Tera-2; conditions: Homo sapiens
Text: as §1

[15] = test system: CAOV-3 cell line; test: Cytotoxicity (CD50), CAOV-3; type: cell-based; conditions: Homo sapiens
Text: as §1

[16] = test system: ES-2 cell line; test: Cytotoxicity (CD50), ES-2; type: cell-based; conditions: Homo sapiens
Text: as §1

[17] = test system: prostate cancer; test: Randomized trial in prostate cancer patients, serum HCY and PSA; type: in vivo, human; parameters: Variation of Serum HCY (mean ± SD): unit not given here; conditions: for difference in serum levels of homocysteine and PSA versus control group: individual vitamin treatment groups (Group 2 or Group 3) vs Group 4
Description: Recently a prospective, randomized trial was performed with 20 prostate cancer patients who had pathologically proven prostate cancer in advanced stages (M1) with osseous metastasis and resistance to hormone therapy. The patients were randomly distributed in four groups of five patients each. […] In Group 2, ascorbic acid was omitted. In Group 3, menadione was omitted. A placebo was administered to patients of Group 4. Only two treatment courses were tested in this study so that the immediate effects of the vitamins in a clinical model could be determined and compared to the immediate induction of autoschizis elicited by the vitamin combination in preclinical models. Homocysteine (a good marker of the number of tumor cells with sensitivity for early detection of tumor cell death induced by treatments) and prostate specific antigen (PSA) assays were performed in the four groups to obtain information about the tumor cell death induced by the treatments. Serum homocysteine (HCY) and PSA were measured the first day of each week (day 1, 8, 15, 22, 29, 36, and […] of the study). […] This fall in serum HCY was highly significant (p<<0.01) in all weekly measures after the first series (day 8-42). […] The reasons for the initial increase in serum PSA levels are unknown.

[18] = test system: terminal cancer; conditions: cited from earlier work
[19] = test system: advanced cancer; conditions: 10 grams given orally; cited from earlier work
[20] = 10 to 100 g twice per week; cited from earlier work
[21] = mouse, in vivo
[22] = test system: hepatoma; conditions: weekly i.p. 10 mg/2 mL for 4 weeks, cited from earlier work
[23] = test system: tumor growth; conditions: cited from earlier work
[24] = 400-500 mg/day over 3-5 consecutive days; cited from earlier work
[25] = cited from earlier work
[26] = test system: advanced lung cancer; conditions: cited from earlier work
[27] = test system: gastrointestinal cancer; conditions: VK3 with mitomycin C; 43 patients; cited from earlier work
[28] = bisulfite form; cited from earlier work
[29] = mice; cited from earlier work
[30] = read-out: Vitamins Alone, Vit C 50% Cytotoxic Dose
[31] = assay day 8, oral 7 day courses from day 1 and day 22, VC 5 g/m^2/day, VK3 50 mg/m^2/day, pretreatment = 0
[32] = read-out: Vitamins Alone, Vit K3 50% Cytotoxic Dose

Question: Which MST ([1]; second study, each agent alone, Oncovin 0.3 mg/kg) does the source give for `CC[C@]1(O)C[C@H]2CN(CCc3c([nH]c4ccccc34)[C@@](C(=O)OC)(c3cc4c(cc3OC)N(C=O)[C@H]3[C@@](O)(C(=O)OC)[C@H](OC(C)=O)[C@]5(CC)C=CCN6CC[C@]43[C@@H]65)C2)C1` [Oncovin, vincristine sulfate] here?
Answer: 19.0 days

Question: With `O=C1O[C@H]([C@@H](O)CO)C([O-])=C1O.[Na+]` [Vitamin C, Sodium Ascorbate] as the molecule, how does the IC50 ([2]; J82, read-out: Vitamins Alone, Vit C 50% Cytotoxic Dose) read?
Answer: 376 ± 1 µM

Question: And the IC50 ([3]; RT-4, read-out: Vitamins Alone, Vit C 50% Cytotoxic Dose)?
Answer: 2430 ± 28 µM

Question: And the IC50 [4, 30]?
Answer: 327 ± 6 µM

Question: And the IC50 ([5]; T-24, read-out: Vitamins Alone, Vit C 50% Cytotoxic Dose)?
Answer: 1490 ± 141 µM

Question: And the IC50 [6, 30]?
Answer: 297 ± 7 µM

Question: And the IC50 ([7]; MDA-MB-231, read-out: Vitamins Alone, Vit C 50% Cytotoxic Dose)?
Answer: 466 ± 3.23 µM

Question: And the IC50 ([8]; CAKI-1, read-out: Vitamins Alone, Vit C 50% Cytotoxic Dose)?
Answer: 376 ± 1 µM

Question: What about the IC50 ([9]; Homo sapiens, MDAH 2774, read-out: Vitamins Alone, Vit C 50% Cytotoxic Dose, MDAH, Ovarian) of the same molecule?
Answer: 1530 µM

Question: And the IC50 ([9]; read-out: Vitamins Alone, Vit C 50% Cytotoxic Dose, MDAH, Ovarian)?
Answer: 1520 ± 29 µM

Question: What about the IC50 ([10]; SK-OV-3, read-out: Vitamins Alone, Vit C 50% Cytotoxic Dose) of the same molecule?
Answer: 755 ± 24.1 µM

Question: What about the IC50 ([11]; CWR22, read-out: Vitamins Alone, Vit C 50% Cytotoxic Dose) of the same molecule?
Answer: 254 ± 1.02 µM

Question: What about the IC50 ([12]; DU-145, read-out: Vitamins Alone, Vit C 50% Cytotoxic Dose) of the same molecule?
Answer: 2460 ± 28 µM

Question: And the IC50 ([13]; PC-3, read-out: Vitamins Alone, Vit C 50% Cytotoxic Dose)?
Answer: 2360 ± 39 µM

Question: And the IC50 [14, 30]?
Answer: 1312 ± 10 µM

Question: What about the IC50 ([15]; Caov-3, read-out: CD50, vitamin C alone) of the same molecule?
Answer: 1360 µM

Question: And the IC50 ([16]; read-out: CD50, VC alone)?
Answer: 197 µM

Question: And the “Variation of Serum HCY (mean ± SD)” value [17, 31]?
Answer: 0.59 ± 0.508

Question: And the “Variation of Serum HCY (mean ± SD)” value ([17]; assay day 15)?
Answer: 0.74 ± 0.349

Question: And the “Variation of Serum HCY (mean ± SD)” value ([17]; assay day 22)?
Answer: 1.24 ± 0.448

Question: What about the “Variation of Serum HCY (mean ± SD)” value ([17]; assay day 29) of the same molecule?
Answer: 1.45 ± 0.498

Question: And the “Variation of Serum HCY (mean ± SD)” value ([17]; assay day 36)?
Answer: 1.32 ± 0.448

Question: And the “Variation of Serum HCY (mean ± SD)” value ([17]; assay day 42)?
Answer: 1.34 ± 0.486

Question: And the “difference in serum levels of homocysteine and PSA versus control group” value [17]?
Answer: non-significant difference

Question: And the increased lifespan ([1]; VC alone 1 g/Kg body weight)?
Answer: 14.7%

Question: What about the mean survival time ([18]; 100 terminal cancer patients, 10 g/day i.v. for 10 days then 10 g/day orally, controls 50 days) of the same molecule?
Answer: more than 210 days

Question: What about the mean survival time ([18]; six ovarian cancer patients, controls 71 days) of the same molecule?
Answer: 148 days

Question: What about the “effectiveness of oral Vitamin C” value [19] of the same molecule?
Answer: no benefits

Question: What about the “remissions with high doses of i.v. VC” value [20] of the same molecule?
Answer: a small number of complete remissions

Question: For `CC1=CC(=O)c2ccccc2C1=O` [Vitamin K3, 2-Methyl-1,4-Naphthoquinone], which IC50 ([2]; J82, read-out: Vitamins Alone, Vit K3 50% Cytotoxic Dose) is on record?
Answer: 8.2 ± 0.15 µM

Question: What about the IC50 ([3]; RT-4, read-out: Vitamins Alone, Vit K3 50% Cytotoxic Dose) of the same molecule?
Answer: 12.8 ± 0.03 µM

Question: And the IC50 [4, 32]?
Answer: 9.7 ± 0.15 µM

Question: And the IC50 ([5]; T-24, read-out: Vitamins Alone, Vit K3 50% Cytotoxic Dose)?
Answer: 13.1 ± 0.01 µM

Question: And the IC50 [6, 32]?
Answer: 6.3 ± 0.06 µM

Question: And the IC50 ([7]; MDA-MB-231, read-out: Vitamins Alone, Vit K3 50% Cytotoxic Dose)?
Answer: 7.1 ± 0.21 µM

Question: What about the IC50 ([8]; CAKI-1, read-out: Vitamins Alone, Vit K3 50% Cytotoxic Dose) of the same molecule?
Answer: 19.3 ± 0.33 µM

Question: And the IC50 ([9]; Homo sapiens, MDAH 2774, read-out: Vitamins Alone, Vit K3 50% Cytotoxic Dose, MDAH, Ovarian)?
Answer: 41.8 µM

Question: What about the IC50 ([10]; SK-OV-3, read-out: Vitamins Alone, Vit K3 50% Cytotoxic Dose) of the same molecule?
Answer: 22 ± 1.93 µM

Question: And the IC50 ([11]; CWR22, read-out: Vitamins Alone, Vit K3 50% Cytotoxic Dose)?
Answer: 4.1 ± 0.33 µM

Question: What about the IC50 ([12]; DU-145, read-out: Vitamins Alone, Vit K3 50% Cytotoxic Dose) of the same molecule?
Answer: 12.9 ± 0.81 µM

Question: What about the IC50 ([13]; PC-3, read-out: Vitamins Alone, Vit K3 50% Cytotoxic Dose) of the same molecule?
Answer: 11.4 ± 0.13 µM

Question: And the IC50 [14, 32]?
Answer: 21.8 ± 0.73 µM

Question: And the IC50 ([15]; Caov-3, read-out: CD50, VK3 alone)?
Answer: 22 µM

Question: What about the IC50 ([16]; read-out: CD50, VK alone) of the same molecule?
Answer: 25 µM

Question: What about the “Variation of Serum HCY (mean ± SD)” value [17, 31] of the same molecule?
Answer: 0.468 ± 0.362

Question: And the “Variation of Serum HCY (mean ± SD)” value ([17]; assay day 15)?
Answer: 0.59 ± 0.227

Question: And the “Variation of Serum HCY (mean ± SD)” value ([17]; assay day 22)?
Answer: 0.68 ± 0.210

Question: And the “Variation of Serum HCY (mean ± SD)” value ([17]; assay day 29)?
Answer: 0.76 ± 0.341

Question: And the “Variation of Serum HCY (mean ± SD)” value ([17]; assay day 36)?
Answer: 1.12 ± 0.400

Question: What about the “Variation of Serum HCY (mean ± SD)” value ([17]; assay day 42) of the same molecule?
Answer: 1.3 ± 0.432

Question: What about the “difference in serum levels of homocysteine and PSA versus control group” value [17] of the same molecule?
Answer: non-significant difference

Question: What about the toxicity to livers [21] of the same molecule?
Answer: no toxicity

Question: And the increased lifespan ([1]; VK3 alone 0.01 g/Kg body weight)?
Answer: 1.07%

Question: What about the long term survivors [22] of the same molecule?
Answer: 5 out of 16

Question: What about the survival ([22]; control rats 17 days) of the same molecule?
Answer: 60 days

Question: What about the “inhibition of tumor growth” value ([23]; VK3 225 mg/kg/day with methotrexate) of the same molecule?
Answer: 84%

Question: What about the “inhibition of tumor growth” value ([23]; menadione 250 mg/kg/day with methotrexate 0.75 mg/kg/day) of the same molecule?
Answer: 99%

Question: What about the “circulating levels of VK3 that induce synergism with methotrexate” value ([23]; rat, in vivo) of the same molecule?
Answer: ≥ 1 µM

Question: What about the “toxicity in phase I clinical trials” value [24] of the same molecule?
Answer: without any appreciable toxicity

Question: What about the “maximum tolerated dose of VK3” value ([25]; 48-hour intravenous infusion, followed by mitomycin C 15 mg/m2 every four weeks) of the same molecule?
Answer: 2.5 g/m^2

Question: And the tolerability ([25]; i.v., in conjunction with mitomycin C, Phase I and Phase II trials)?
Answer: well tolerated

Question: What about the “hemolysis at maximum tolerated dose” value ([25]; with mitomycin C every four weeks) of the same molecule?
Answer: no hemolysis

Question: What about the median survival ([26]; VK3 in combination with mitomycin C, 23 patients) of the same molecule?
Answer: 5.5 months

Question: And the “patients exhibiting hematologic toxicity” value ([26]; VK3 with mitomycin C)?
Answer: 30%

Question: What about the “patients exhibiting some tumor regression” value ([26]; VK3 with mitomycin C) of the same molecule?
Answer: 26%

Question: What about the response to therapy [27] of the same molecule?
Answer: no objective response

Question: And the solubility [28]?
Answer: water soluble

Question: What about the LD50 [29] of the same molecule?
Answer: 500 mg/kg

Question: Which ILS ([1]; single dose of cyclophosphamide 80 mg/kg body weight) does the source give for `O=P1(N(CCCl)CCCl)NCCCO1` (stereo not shown) [cyclophosphamide] here?
Answer: 23%

Question: And the MST ([1]; single dose of cyclophosphamide 80 mg/kg body weight, untreated 16.8 days)?
Answer: 20.6 days
